This is an account of results in patent US6362319B1, “Glial cell line-derived neurotrophic factor” (Amgen Inc., priority 1991, dated 2002).

In experiment [1] the target is monoamine transporter on dopaminergic neurons (Rattus norvegicus, UniProt P23977). The following applies: 0.5 mM inhibitor in uptake buffer. An excerpt: The functional status of the dopaminergic neurons may be assayed in these cultures by measuring dopamine uptake through specific “scavenger” transporters in the dopaminergic neurons and by counting the number of neurons positive for the dopamine synthetic enzyme tyrosine hydroxylase using immunohistochemistry.
monoamine transporter on dopaminergic neurons, sequence (P23977 whole entry): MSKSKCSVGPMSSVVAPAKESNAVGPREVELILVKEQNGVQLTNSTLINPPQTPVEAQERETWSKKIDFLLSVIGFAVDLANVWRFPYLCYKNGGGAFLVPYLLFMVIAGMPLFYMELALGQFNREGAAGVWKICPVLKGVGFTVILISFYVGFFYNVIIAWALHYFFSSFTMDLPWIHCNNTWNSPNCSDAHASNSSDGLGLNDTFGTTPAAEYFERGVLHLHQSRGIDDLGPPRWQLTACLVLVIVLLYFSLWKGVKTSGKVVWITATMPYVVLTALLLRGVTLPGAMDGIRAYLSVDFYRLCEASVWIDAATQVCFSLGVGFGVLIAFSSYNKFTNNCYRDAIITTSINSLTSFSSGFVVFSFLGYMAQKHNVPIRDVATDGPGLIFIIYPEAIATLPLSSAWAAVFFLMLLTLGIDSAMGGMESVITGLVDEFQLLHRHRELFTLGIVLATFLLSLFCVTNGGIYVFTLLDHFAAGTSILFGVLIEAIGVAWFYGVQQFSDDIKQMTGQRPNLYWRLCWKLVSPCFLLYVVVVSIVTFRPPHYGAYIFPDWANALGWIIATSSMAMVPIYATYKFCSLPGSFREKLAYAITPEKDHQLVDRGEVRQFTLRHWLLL

For experiment [2], the system named is serotonergic neurons in rat embryo mesencephalic cultures. The experiment can be described thus: 3H-serotonin uptake in mesencephalic cultures. It is filed as cell-based. To be noted: 10 μM inhibitor. On the procedure:
FIGS. 24A-B depicts the specificity of GDNF to dopaminergic neurons. Cultures were prepared as described in Example 1B. GDNF was added on the day of plating, and uptake was measured after 6 days in vitro. A depicts dopamine uptake and B depicts serotonin uptake.
In the presence of 10 μM citalpram (obtained from Dr. C. Mytilineou, Mount Sinai School of Medicine), a known potent inhibitor of serotonin uptake in serotonin neurons, the ^3H-serotonin uptake was reduced to 15%.

The test system of experiment [3] is GABA neurons in mesencephalic cultures. Nature of the experiment: 14C-GABA uptake in mesencephalic cultures. It is filed as cell-based, rat. To be noted: 1 mM inhibitor. The protocol: FIGS. 21A-C depicts the specificity of GDNF to dopaminergic neurons. Cultures were established as described in Example 1B. GDNF was added on the day of plating. A. ^3H-DA uptake was measured after seven days in vitro. B. ^14C-GABA uptake was measured after eight days in vitro. Cells were incubated and treated as for ^3H-DA uptake, except the uptake buffer consists of Kreb-Ringer's phosphate buffer, pH 7.4, containing 5.6 mM glucose, 1.3 mM EDTA, 10 μM amino-oxyacetic acid (to prevent GABA breakdown), 2 mM β-alanine (to inhibit glia uptake of GABA) and 0.1 μM ^14C-GABA (150 mCi/mmole, New England Nuclear, Boston, Mass.). In the presence of 1 mM diaminobutyric acid (DABA), a potent inhibitor of ^14C-GABA uptake into GABA neurons, the ^14C-uptake was reduced to 10%. Control values in the presence of DABA were subtracted from experimental values.
H^3-dopamine (^3H-DA) and ^14C-GABA uptake were measured in sister cultures of mesencephalic cells which had been grown with various concentrations of GDNF for 15 and 16 days, respectively. As described above, GDNF enhanced the ^3H-DA uptake capacity of mesencephalic dopamine neurons ˜150% over control without GDNF (FIG. 21A). […] This is also illustrated by the increase in the ^3H-DA/^14C-GABA uptake ratio calculated (FIG. 21C).

Experiment [4] deals with dopaminergic neurons in rat embryo (E16) mesencephalic cell cultures. The following applies: Casper et al. 1991; cited from earlier work.
The subject of experiment [5] is GABA neurons in mesencephalic cultures. To be noted: Casper et al. 1991; cited from earlier work.
The test system of experiment [6] is serotonergic neurons in rat embryo mesencephalic cultures. The following applies: Casper et al. 1991; cited from earlier work.

Consider `Fc1ccc(C(OCCN2CCN(CCCc3ccccc3)CC2)c2ccc(F)cc2)cc1` [GBR12909], for which the “blank 3H-DA uptake as % of uptake in untreated control cultures” value in experiment [1] is “less than 5%”.

Turning to `CN(C)CCCC1(c2ccc(F)cc2)OCc2cc(C#N)ccc21` (stereo not drawn) [citalpram, reference compound], the “3H-serotonin uptake remaining in presence of inhibitor” value in experiment [2] came out at 15%.

In the case of `NCCC(N)C(=O)O` (stereo not drawn) [diaminobutyric acid (DABA), diaminobutyric acid, reference compound], in experiment [3], the “14C-uptake remaining in presence of inhibitor” value was found to be 10%.

In the case of “epidermal growth factor (NSDSECPLSHDGYCLHDGVCMYIEALDKYACNCVVGYIGERCQYRDLKWWELR; Epidermal growth factor; UniProt P01133 971-1023, looked up) [EGF, non-specific factor increasing dopamine, serotonin and GABA uptake]”, the “effect on dopamine uptake” value in experiment [4] is on record as “increase dopamine uptake”. In experiment [5], the “effect on GABA uptake” value is listed as “increase”. The “effect on serotonin uptake” value in experiment [6] is on record as “increase serotonin uptake”.
